Data: patent US20210009564A1, “CALPAIN MODULATORS AND THERAPEUTIC USES THEREOF” (BLADE THERAPERTICS, INC., priority 2018, published 2021)

How the values were obtained:
Human Calpain 1/NS1 = molecular target: T1, Human Calpain 1/NS1 (Homo sapiens, UniProt P07384); assay: Calpain inhibition, continuous fluorescence (FRET substrate) assay, calpain 1; type: biochemical; conditions: SensoLyte 520 FRET substrate, 25C
T1 sequence (P07384 1-714): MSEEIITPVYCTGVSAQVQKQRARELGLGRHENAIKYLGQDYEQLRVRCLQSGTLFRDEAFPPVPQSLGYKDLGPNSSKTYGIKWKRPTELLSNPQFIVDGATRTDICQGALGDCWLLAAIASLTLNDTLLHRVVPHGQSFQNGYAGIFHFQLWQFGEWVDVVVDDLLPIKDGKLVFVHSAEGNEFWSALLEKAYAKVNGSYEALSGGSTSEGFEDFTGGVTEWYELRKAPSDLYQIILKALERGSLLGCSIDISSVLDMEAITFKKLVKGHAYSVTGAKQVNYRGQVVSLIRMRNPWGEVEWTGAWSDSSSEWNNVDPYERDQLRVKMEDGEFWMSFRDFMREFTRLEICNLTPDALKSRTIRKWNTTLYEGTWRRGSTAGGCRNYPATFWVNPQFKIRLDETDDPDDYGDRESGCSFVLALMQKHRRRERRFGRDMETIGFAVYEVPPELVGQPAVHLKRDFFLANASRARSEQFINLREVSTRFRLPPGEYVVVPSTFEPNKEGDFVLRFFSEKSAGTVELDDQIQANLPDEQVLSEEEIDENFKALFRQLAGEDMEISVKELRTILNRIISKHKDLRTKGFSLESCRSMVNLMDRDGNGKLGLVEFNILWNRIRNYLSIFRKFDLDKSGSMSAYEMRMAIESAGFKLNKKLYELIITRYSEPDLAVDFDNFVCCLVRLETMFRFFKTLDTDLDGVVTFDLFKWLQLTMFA
T1 sequence (P04632 1-268 partner): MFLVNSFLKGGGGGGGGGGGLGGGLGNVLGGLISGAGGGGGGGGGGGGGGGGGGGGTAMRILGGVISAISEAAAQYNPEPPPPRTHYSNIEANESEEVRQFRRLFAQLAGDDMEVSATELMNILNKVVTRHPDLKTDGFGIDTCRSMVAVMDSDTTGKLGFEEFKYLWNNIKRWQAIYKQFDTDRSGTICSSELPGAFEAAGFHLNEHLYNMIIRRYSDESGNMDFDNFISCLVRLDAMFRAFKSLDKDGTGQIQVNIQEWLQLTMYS
Procedure, shortened: (§1)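 Calpains preincubated with serially diluted inhibitors at 25 °C in 50 mM Tris pH 7.5, 100 mM NaCl, 1 mM DTT; CaCl2 plus 5-FAM/QXL 520 FRET substrate started the reaction. Fluorescence (490/520 nm) read 10 min; rates from 1-5 min slopes, IC50 from 4-parameter logistic fit.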

Human Calpain 2/NS1 = molecular target: T2, Human Calpain 2/NS1 (Homo sapiens, UniProt P17655); assay: Calpain inhibition, continuous fluorescence (FRET substrate) assay, calpain 2; type: biochemical; conditions: SensoLyte 520 FRET substrate, 25C
T2 sequence (P17655 1-700): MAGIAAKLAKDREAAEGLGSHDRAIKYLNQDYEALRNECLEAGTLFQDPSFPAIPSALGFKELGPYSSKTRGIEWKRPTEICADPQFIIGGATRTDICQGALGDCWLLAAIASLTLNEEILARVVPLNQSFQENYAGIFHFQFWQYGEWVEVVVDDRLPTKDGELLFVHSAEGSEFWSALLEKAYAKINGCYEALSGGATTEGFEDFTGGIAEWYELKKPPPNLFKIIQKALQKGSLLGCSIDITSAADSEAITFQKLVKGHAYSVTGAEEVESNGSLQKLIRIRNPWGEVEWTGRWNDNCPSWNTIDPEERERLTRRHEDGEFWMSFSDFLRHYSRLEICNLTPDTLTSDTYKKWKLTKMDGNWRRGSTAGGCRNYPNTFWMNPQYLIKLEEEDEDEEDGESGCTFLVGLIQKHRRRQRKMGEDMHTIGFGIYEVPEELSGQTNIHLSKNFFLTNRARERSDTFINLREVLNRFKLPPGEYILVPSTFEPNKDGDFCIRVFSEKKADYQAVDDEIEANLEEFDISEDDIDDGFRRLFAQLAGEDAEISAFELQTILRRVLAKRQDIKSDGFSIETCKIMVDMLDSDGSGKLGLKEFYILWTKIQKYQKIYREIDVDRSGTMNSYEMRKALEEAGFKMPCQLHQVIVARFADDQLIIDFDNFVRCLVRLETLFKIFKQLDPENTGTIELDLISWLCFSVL
T2 sequence (P04632 1-268 partner): T1 sequence (P04632 1-268 partner)
Procedure, shortened: as §1

Human Calpain 9/NS1 = molecular target: T3, Human Calpain 9/NS1 (Homo sapiens, UniProt O14815); assay: Calpain inhibition, continuous fluorescence (FRET substrate) assay, calpain 9; type: biochemical; conditions: SensoLyte 520 FRET substrate, 25C
T3 sequence (O14815 1-690): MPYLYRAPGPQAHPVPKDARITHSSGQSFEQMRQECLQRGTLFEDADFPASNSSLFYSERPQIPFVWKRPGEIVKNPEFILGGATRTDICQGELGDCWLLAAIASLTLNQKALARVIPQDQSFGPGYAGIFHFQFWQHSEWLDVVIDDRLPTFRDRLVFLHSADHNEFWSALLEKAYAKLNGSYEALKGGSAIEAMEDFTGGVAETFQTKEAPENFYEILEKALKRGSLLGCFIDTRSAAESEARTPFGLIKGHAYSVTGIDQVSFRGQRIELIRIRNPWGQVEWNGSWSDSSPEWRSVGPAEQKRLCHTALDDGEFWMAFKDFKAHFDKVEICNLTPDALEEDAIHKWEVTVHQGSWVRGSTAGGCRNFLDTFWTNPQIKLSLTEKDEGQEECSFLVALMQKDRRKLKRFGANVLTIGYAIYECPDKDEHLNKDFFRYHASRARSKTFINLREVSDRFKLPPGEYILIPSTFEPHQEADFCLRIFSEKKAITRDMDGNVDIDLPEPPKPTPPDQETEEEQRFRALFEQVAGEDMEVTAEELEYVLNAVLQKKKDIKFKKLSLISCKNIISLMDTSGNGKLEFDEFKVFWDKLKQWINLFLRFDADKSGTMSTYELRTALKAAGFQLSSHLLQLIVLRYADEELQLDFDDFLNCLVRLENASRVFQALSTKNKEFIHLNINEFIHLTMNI
T3 sequence (P04632 1-268 partner): T1 sequence (P04632 1-268 partner)
Procedure, shortened: as §1

[1] = tested on: Calpain activity in SH-SY5Y cells; assay: SH-SY5Y spectrin breakdown product (SBDP-150) western blot assay; type: cell-based; conditions: Homo sapiens; SH-SY5Y cells, 25 uM A23187, SBDP-150 western blot; read-out: SH-SY5Y Spectrin IC50
[2] = tested on: Calpain activity in SH-SY5Y cells; assay: SH-SY5Y Suc-LLVY-AMC fluorescence assay; type: cell-based; conditions: Homo sapiens; SH-SY5Y cells, 100 uM Suc-LLVY-AMC; read-out: SH-SY5Y + AMC IC50

Row | Structure (SMILES) | IC50 (Human Calpain 1/NS1) [µM] | IC50 (Human Calpain 2/NS1) [µM] | IC50 (Human Calpain 9/NS1) [µM] | IC50 [1] [µM] | IC50 [2] [µM]
1 | Cc1nc(-c2ccccc2F)c(C(=O)NC(Cc2ccccc2)C(=O)C(=O)O)o1 (centres unmarked) [Compound 64, 3-(4-(2-FLUOROPHENYL)-2-METHYLOXAZOLE-5-CARBOXAMIDO)-2-OXO-4-PHENYLBUTANOIC ACID] | < 3 | < 3 | < 3 | > 25 | < 10
2 | Cn1cc(C(=O)NC(Cc2ccccc2)C(=O)C(=O)O)c(-c2ccccc2F)n1 (centres unmarked) [Compound 65, 3-(3-(2-FLUOROPHENYL)-1-METHYL-1H-PYRAZOLE-4-CARBOXAMIDO)-2-OXO-4-PHENYLBUTANOIC ACID] | < 3 | < 3 | < 3 | > 25 | < 10
3 | O=C(O)C(=O)C(Cc1ccccc1)NC(=O)c1nsnc1-c1ccccc1 (centres unmarked) [Compound 67, 2-OXO-4-PHENYL-3-(4-PHENYL-1,2,5-THIADIAZOLE-3-CARBOXAMIDO)BUTANOIC ACID] | < 3 | < 3 | < 3 | < 10 | < 10
4 | Cn1cc(C(=O)NC(Cc2ccccc2)C(=O)C(N)=O)c(-c2cccc3ocnc23)n1 (centres unmarked) [Compound 68, N-(4-AMINO-3,4-DIOXO-1-PHENYLBUTAN-2-YL)-3-(BENZO[D]OXAZOL-4-YL)-1-METHYL-1H-PYRAZOLE-4-CARBOXAMIDE] | < 3 | < 3 | < 3 | 10 to 25 | < 10
5 | Cn1cc(C(=O)NC(Cc2ccccc2)C(=O)C(N)=O)c(-c2cccc3nn(C)cc23)n1 (centres unmarked) [Compound 69, N-(4-AMINO-3,4-DIOXO-1-PHENYLBUTAN-2-YL)-1-METHYL-3-(2-METHYL-2H-INDAZOL-4-YL)-1H-PYRAZOLE-4-CARBOXAMIDE] | < 3 | < 3 | < 3 | 10 to 25 | 10 to 25
6 | NC(=O)C(=O)C(Cc1ccccc1)NC(=O)c1cn(C(F)F)nc1-c1cccc2scnc12 (centres unmarked) [Compound 70, N-(4-AMINO-3,4-DIOXO-1-PHENYLBUTAN-2-YL)-3-(BENZO[D]THIAZOL-4-YL)-1-(DIFLUOROMETHYL)-1H-PYRAZOLE-4-CARBOXAMIDE] | < 3 | < 3 | < 3 | < 10 | < 10
7 | NC(=O)C(=O)C(Cc1ccccc1)NC(=O)c1cn(C(F)F)nc1-c1cccc2ocnc12 (centres unmarked) [Compound 71, N-(4-AMINO-3,4-DIOXO-1-PHENYLBUTAN-2-YL)-3-(BENZO[D]OXAZOL-4-YL)-1-(DIFLUOROMETHYL)-1H-PYRAZOLE-4-CARBOXAMIDE] | < 3 | < 3 | < 3 | < 10 | < 10
8 | Cn1cc(C(=O)NC(Cc2ccccc2)C(=O)C(=O)O)c(-c2cccc(F)c2)n1 (centres unmarked) [Compound 72, 3-(3-(3-FLUOROPHENYL)-1-METHYL-1H-PYRAZOLE-4-CARBOXAMIDO)-2-OXO-4-PHENYLBUTANOIC ACID] | < 3 | < 3 | < 3 | > 25 | < 10
9 | Cc1cc(-c2nc(C)oc2C(=O)NC(Cc2ccccc2)C(=O)C(N)=O)c(C)o1 (centres unmarked) [Compound 78, N-(4-AMINO-3,4-DIOXO-1-PHENYLBUTAN-2-YL)-4-(2,5-DIMETHYLFURAN-3-YL)-2-METHYLOXAZOLE-5-CARBOXAMIDE] | < 3 | < 3 | < 3 | 10 to 25 | < 10
10 | NC(=O)C(=O)C(Cc1ccccc1)NC(=O)c1nsnc1-c1ccoc1Cl (centres unmarked) [Compound 79, N-(4-AMINO-3,4-DIOXO-1-PHENYLBUTAN-2-YL)-4-(2-CHLOROFURAN-3-YL)-1,2,5-THIADIAZOLE-3-CARBOXAMIDE] | < 3 | < 3 | < 3 | < 10 | < 10
11 | Cc1nc(-c2ccccc2F)c(C(=O)NC(Cc2ccccc2F)C(=O)C(N)=O)o1 (centres unmarked) [Compound 80, N-(4-AMINO-1-(2-FLUOROPHENYL)-3,4-DIOXOBUTAN-2-YL)-4-(2-FLUOROPHENYL)-2-METHYLOXAZOLE-5-CARBOXAMIDE] | < 3 | < 3 | < 3 | < 10 | < 10
12 | Cc1nc(-c2cc(Cl)oc2Cl)c(C(=O)NC(Cc2ccccc2)C(=O)C(N)=O)o1 (centres unmarked) [Compound 81, N-(4-AMINO-3,4-DIOXO-1-PHENYLBUTAN-2-YL)-4-(2,5-DICHLOROFURAN-3-YL)-2-METHYLOXAZOLE-5-CARBOXAMIDE] | < 3 | < 3 | < 3 | 10 to 25 | < 10
13 | N#CC(Cc1ccccc1)NC(=O)c1nsnc1-c1ccccc1 (centres unmarked) [Compound 82, N-(1-CYANO-2-PHENYLETHYL)-4-PHENYL-1,2,5-THIADIAZOLE-3-CARBOXAMIDE] | > 10 | > 10 | > 10 | > 25 | > 25
14 | Cc1nc(-c2ccccc2F)c(C(=O)NC(Cc2ccccc2Cl)C(=O)C(N)=O)o1 (centres unmarked) [Compound 83, N-(4-AMINO-1-(2-CHLOROPHENYL)-3,4-DIOXOBUTAN-2-YL)-4-(2-FLUOROPHENYL)-2-METHYLOXAZOLE-5-CARBOXAMIDE] | < 3 | < 3 | < 3 | > 25 | < 10
15 | Cc1nc(-c2ccoc2C)c(C(=O)NC(Cc2ccccc2)C(=O)C(N)=O)o1 (centres unmarked) [Compound 84, N-(4-AMINO-3,4-DIOXO-1-PHENYLBUTAN-2-YL)-2-METHYL-4-(2-METHYLFURAN-3-YL)OXAZOLE-5-CARBOXAMIDE] | < 3 | < 3 | < 3 | 10 to 25 | < 10
16 | O=C(NC(Cc1ccccc1)C(=O)c1ncco1)c1nsnc1-c1ccccc1 (centres unmarked) [Compound 85, N-(1-(OXAZOL-2-YL)-1-OXO-3-PHENYLPROPAN-2-YL)-4-PHENYL-1,2,5-THIADIAZOLE-3-CARBOXAMIDE] | > 10 | > 10 | > 10 | > 25 | < 10
